{"source": "patent US20240409886A1", "about": "“CULTURE MEDIUM COMPRISING DIPEPTIDES” (Evonik Operations GmbH, priority 2017, published 2024)", "test_system": "antibody-producing Chinese Hamster Ovary (CHO) cell (subclone DG44)", "assay": "viable cell density in CHO cell culture with increasing Gln-Asn dipeptide (OFAT)", "format": "cell-based", "protocol": "The effect of the Gln-Asn dipeptide on an antibody-producing Chinese Hamster Ovary (CHO) cell (subclone DG44; Life Technologies Corporation, Carlsbad, USA) was investigated using one-factor-at-a-time (OFAT) analysis.\nThe analysis was based on a comparison of the viable cell density and cell viability in a series of cell cultures, which were conducted at substantially identical culturing conditions, however, with increasing amounts of the Gln-Asn dipeptide in the medium. In order to keep the total amounts of Asn and Gln units (molar basis) in the various culture media constant, the molar concentration of free glutamine and free asparagine was reduced in accordance with the molar amount of the dipeptide added. A series of culture media having increasing amounts of the Gln-Asn dipeptide was prepared by mixing varying amounts of a Base Medium (comprising free Asn and Gln) and a Test Medium (comprising Asn-Gln dipeptide). A commercially available defined cell culture medium (TC-42, TeutoCell AG, Bielefeld, Germany) served as the Base Medium. (Any other suitable cell culture medium could be used.) A Test Medium (TC-42-EVO) was prepared so as to have identical nutrient concentrations compared to the Base Medium, however, instead of free Asn the Test Medium contained an equimolar amount (5.4 mM) of Gin-Asn dipeptide. Furthermore, the free Gln concentration in the Test Medium was set to a value such that the total concentration of Gln units in the Test Medium (i.e., free Gln and dipeptide-Gln) matched the concentration of free Gln in the Base Medium. All other nutrient concentrations in the Test Medium were the same as in the Base Medium. The Base Medium contained 1461.5 mg/l free Gln and 612 mg/l free Asn.\nSix cell cultivations were then conducted with media containing varying amounts of the Test Medium and the Base Medium in the following proportions:\nAll media were set to pH 8.3. Salinity of the culture media was set to 285 mOsmol/kg with NaCl. All cultivations were conducted in on a rotary shaker under identical culture conditions (temperature, humidity, rpm, CO2, etc.), using standard cell culture methods. Three passages of a cell culture are conducted and viable cell density (VCD; 10^6 viable cells/ml) and cell viability (%) was followed in duplicate determinations, using […] determination.\nA correlation of the maximum viable cell density (third passage) with the concentration of the dipeptide is observed. The greatest maximum viable cell density is obtained in cultivation #1, i.e., in the cultivation in which all Asn is provided in the form of the Asn-containing dipeptide. The lowest maximum viable cell density is obtained in cultivation #6, i.e., in the cultivation in which all of the Asn in provided as free amino acid. Furthermore, it can be seen that the increased viable cell density is maintained over an extended period of time (day 13 through day 18).", "note": "Residues, ends and D or L forms follow the SMILES beside them."}
{"molecule": "NC(=O)CC[C@H](N)C(=O)N[C@@H](CC(N)=O)C(=O)O", "note": "[Gln-Asn, L-glutaminyl-L-asparagine] (H-Gln-Asn-OH)", "values": [{"measurement": "viable cell density", "setting": "0.3 mM dipeptide (#5), time 0", "result": "0.285 10^6 cells/ml"}, {"measurement": "viable cell density", "setting": "0.3 mM dipeptide (#5), time 0.89", "result": "0.485 10^6 cells/ml"}, {"measurement": "viable cell density", "setting": "0.3 mM dipeptide (#5), time 3.08", "result": "1.985 10^6 cells/ml"}, {"measurement": "viable cell density", "setting": "0.3 mM dipeptide (#5), time 3.71", "result": "3.325 10^6 cells/ml"}, {"measurement": "viable cell density", "setting": "0.3 mM dipeptide (#5), time 4.08", "result": "0.265 10^6 cells/ml"}, {"measurement": "viable cell density", "setting": "0.3 mM dipeptide (#5), time 4.70", "result": "1.12 10^6 cells/ml"}, {"measurement": "viable cell density", "setting": "0.3 mM dipeptide (#5), time 5.69", "result": "1.555 10^6 cells/ml"}, {"measurement": "viable cell density", "setting": "0.3 mM dipeptide (#5), time 6.88", "result": "3.8 10^6 cells/ml"}, {"measurement": "viable cell density", "setting": "0.3 mM dipeptide (#5), time 7.04", "result": "0.31 10^6 cells/ml"}, {"measurement": "viable cell density", "setting": "0.3 mM dipeptide (#5), time 7.80", "result": "1.17 10^6 cells/ml"}, {"measurement": "viable cell density", "setting": "0.3 mM dipeptide (#5), time 8.78", "result": "2.01 10^6 cells/ml"}, {"measurement": "viable cell density", "setting": "0.3 mM dipeptide (#5), time 9.82", "result": "3.9 10^6 cells/ml"}, {"measurement": "viable cell density", "setting": "0.3 mM dipeptide (#5), time 10.99", "result": "6.065 10^6 cells/ml"}, {"measurement": "viable cell density", "setting": "0.3 mM dipeptide (#5), time 12.02", "result": "8.21 10^6 cells/ml"}, {"measurement": "viable cell density", "setting": "0.3 mM dipeptide (#5), time 12.75", "result": "7.135 10^6 cells/ml"}, {"measurement": "viable cell density", "setting": "0.3 mM dipeptide (#5), time 13.89", "result": "5.13 10^6 cells/ml"}, {"measurement": "viable cell density", "setting": "0.3 mM dipeptide (#5), time 14.74", "result": "5.54 10^6 cells/ml"}, {"measurement": "viable cell density", "setting": "0.3 mM dipeptide (#5), time 15.79", "result": "4.075 10^6 cells/ml"}, {"measurement": "viable cell density", "setting": "0.3 mM dipeptide (#5), time 16.89", "result": "2.775 10^6 cells/ml"}, {"measurement": "viable cell density", "setting": "0.3 mM dipeptide (#5), time 18.06", "result": "1.825 10^6 cells/ml"}, {"measurement": "viable cell density", "setting": "0.8 mM dipeptide (#4), time 0", "result": "0.27 10^6 cells/ml"}, {"measurement": "viable cell density", "setting": "0.8 mM dipeptide (#4), time 0.89", "result": "0.565 10^6 cells/ml"}, {"measurement": "viable cell density", "setting": "0.8 mM dipeptide (#4), time 3.08", "result": "2.285 10^6 cells/ml"}, {"measurement": "viable cell density", "setting": "0.8 mM dipeptide (#4), time 3.71", "result": "3.4 10^6 cells/ml"}, {"measurement": "viable cell density", "setting": "0.8 mM dipeptide (#4), time 4.08", "result": "0.365 10^6 cells/ml"}, {"measurement": "viable cell density", "setting": "0.8 mM dipeptide (#4), time 4.70", "result": "0.665 10^6 cells/ml"}, {"measurement": "viable cell density", "setting": "0.8 mM dipeptide (#4), time 5.69", "result": "1.545 10^6 cells/ml"}, {"measurement": "viable cell density", "setting": "0.8 mM dipeptide (#4), time 6.88", "result": "3.36 10^6 cells/ml"}, {"measurement": "viable cell density", "setting": "0.8 mM dipeptide (#4), time 7.04", "result": "0.32 10^6 cells/ml"}, {"measurement": "viable cell density", "setting": "0.8 mM dipeptide (#4), time 7.80", "result": "1.12 10^6 cells/ml"}, {"measurement": "viable cell density", "setting": "0.8 mM dipeptide (#4), time 8.78", "result": "1.86 10^6 cells/ml"}, {"measurement": "viable cell density", "setting": "0.8 mM dipeptide (#4), time 9.82", "result": "3.6 10^6 cells/ml"}, {"measurement": "viable cell density", "setting": "0.8 mM dipeptide (#4), time 10.99", "result": "6.31 10^6 cells/ml"}, {"measurement": "viable cell density", "setting": "0.8 mM dipeptide (#4), time 12.02", "result": "7.805 10^6 cells/ml"}, {"measurement": "viable cell density", "setting": "0.8 mM dipeptide (#4), time 12.75", "result": "7.545 10^6 cells/ml"}, {"measurement": "viable cell density", "setting": "0.8 mM dipeptide (#4), time 13.89", "result": "5.86 10^6 cells/ml"}, {"measurement": "viable cell density", "setting": "0.8 mM dipeptide (#4), time 14.74", "result": "5.26 10^6 cells/ml"}, {"measurement": "viable cell density", "setting": "0.8 mM dipeptide (#4), time 15.79", "result": "4.065 10^6 cells/ml"}, {"measurement": "viable cell density", "setting": "0.8 mM dipeptide (#4), time 16.89", "result": "3.175 10^6 cells/ml"}, {"measurement": "viable cell density", "setting": "0.8 mM dipeptide (#4), time 18.06", "result": "2.3 10^6 cells/ml"}, {"measurement": "viable cell density", "setting": "1.4 mM dipeptide (#3), time 0", "result": "0.265 10^6 cells/ml"}, {"measurement": "viable cell density", "setting": "1.4 mM dipeptide (#3), time 0.89", "result": "0.495 10^6 cells/ml"}, {"measurement": "viable cell density", "setting": "1.4 mM dipeptide (#3), time 3.08", "result": "1.8 10^6 cells/ml"}, {"measurement": "viable cell density", "setting": "1.4 mM dipeptide (#3), time 3.71", "result": "2.415 10^6 cells/ml"}, {"measurement": "viable cell density", "setting": "1.4 mM dipeptide (#3), time 4.08", "result": "0.315 10^6 cells/ml"}, {"measurement": "viable cell density", "setting": "1.4 mM dipeptide (#3), time 4.70", "result": "0.65 10^6 cells/ml"}, {"measurement": "viable cell density", "setting": "1.4 mM dipeptide (#3), time 5.69", "result": "1.47 10^6 cells/ml"}, {"measurement": "viable cell density", "setting": "1.4 mM dipeptide (#3), time 6.88", "result": "3.365 10^6 cells/ml"}, {"measurement": "viable cell density", "setting": "1.4 mM dipeptide (#3), time 7.04", "result": "0.33 10^6 cells/ml"}, {"measurement": "viable cell density", "setting": "1.4 mM dipeptide (#3), time 7.80", "result": "0.77 10^6 cells/ml"}, {"measurement": "viable cell density", "setting": "1.4 mM dipeptide (#3), time 8.78", "result": "1.615 10^6 cells/ml"}]}
